From patent US20230257385A1, “SALT AND SOLID FORMS OF TABERNANTHALOG” (priority 2021, published 2023) come the findings set out here.

Series [1] is classed as physicochemical. As to conditions: salt screen, Experiment 2. As for the experimental part:
Tabernanthalog (native) (50 mg, 1 wt) was charged to a solution of the relevant counter ion (1.0 mol equivalence of counter ion) in ethanol (5.0 vol, 250 μl). The mixtures were warmed to 85° C. and small aliquots of water were added until dissolution occurred (Table 212 for additional charges of solvent). The solutions were cooled and allowed to stand undisturbed under sub-ambient conditions overnight (Table 211). […] Products were isolated via centrifugation. The corresponding pellets were sub-sampled and analyzed wet by XRPD; after which, they were dried at 40° C. under reduced pressure over 20 h and reanalyzed by XRPD. […] Once the crystallization experiments were completed, salt formation was confirmed by ^1H NMR, XRPD, DSC and TGA.

Series [2] in a line: Solubility determinations in SIF buffers FaSSIF, FeSSIF, FaSSGF (Example 8, Experiment 5). As for the experimental part: The temperature was maintained at 37° C. for 24 h. […] The suspensions were sampled at the relevant time points and centrifuged. The centrifuged pellets, obtained at the time points were analysed by XRPD as a wet pellet and dried, for evidence of form change.
The temperature was maintained at 37° C. for 24 h.
The suspension was sampled at the relevant time points and centrifuged. […] The centrifuged pellets, obtained at the time points were analyzed by XRPD as a wet pellet and dried, for evidence of form change.

Series [3] can be described thus: Equilibrium humidity evaluation 75% RH/40° C., 10 days (Example 8, Experiment 6). It counts as physicochemical. The procedure:
The experimental procedure that accompany this experiment is provided in Section G.ii.
All forms were maintained under constant equilibrium humidity (75% RH). XRPD, DSC, TGA, PLM and ^1H NMR analyses were performed on the absorbents at t=5 d and t=10 d, to confirm their physical fates and to determine the extent of residual solvent exchange or sequestration.
100 mg portions of Tabernanthalog salts ([…]) were placed in the relevant open vials. The powders were finely divided and distributed evenly over the base of the vial, such that equal material coverage across the panel was observed. These samples were then maintained 40° C. under 75% RH. The samples were sub-sampled at intervals of 5 and 10 days and analyzed by ^1H NMR, HPLC, XRPD, DSC, TGA and PLM, for evidence of phase change or chemical degradation.

Series [4] is described as follows: DVS analyses of sorbate salt Form A / Form C (Example 10). It counts as physicochemical. The settings on record: 0% to 90% to 0% RH. The source says:
DVS analyses of Form A (Performed on batch reference: Experiment 11-Sample -A1) To determine whether Form A underwent form change at high % RH, DVS residues of Form A, from 0 to 80% RH and 0 to 90% RH, were examined. The specimens were equilibrated to constant mass, at 80% and 90% RH set-points, removed, placed in a capped vial, and analysed by XRPD and DSC. Based on the SC-XRD at 100 K, no regular voids in the crystal structure were large enough to accommodate non-crystal-bonded, molecular water with minimum probe radius of 1.4 Å.
The moisture sorption properties of the feed API were analysed by DVS Intrinsic instrument (Surface Measurement System). Approximately 20 to 50 mg of API was weighed onto an aluminium pan and loaded into the instrument equilibrated at 25° C. The sample was equilibrated under a dry atmosphere (0% relative humidity) for 60 minutes, before increasing the humidity from 0% to 30% at 5% step increment and from 30% to 90% at 10% step increment. A desorption cycle was also applied from 90% to 30% (10% step decrement) and from 30% to 0% (5% step decrement). A rate of change in mass per time unit (dm/dt) of 0.002%/min was set as the equilibrium parameter. Kinetic and isotherm graphs were calculated.
5. DVS Analyses: 0% to 90% DVS Mass Per Unit Time Equilibrated at Dm/Dt (0.0002%/Min)

Setting [5] is: input batch 3-B1, before SIF buffer.

As for `COc1ccc2c3c([nH]c2c1)CCN(C)CC3.O=C(O)C[C@H](O)C(=O)O` [Tabernanthalog · Malate], in series [1], the “Discrete melt (DSC)?” value is listed as “✓”, the “Flat baseline (DSC)?” value is reported as “✓”, the “Flat baseline pre-melt (TGA)?” value is reported as “✓” and the “Unique XRPD?” value is listed as “✓”.

With `COc1ccc2c3c([nH]c2c1)CCN(C)CC3.O=C(O)CC(O)(CC(=O)O)C(=O)O` [Tabernanthalog · Citrate], the “Unique XRPD?” value in series [1] is recorded as “v. Disordered”.

`COc1ccc2c3c([nH]c2c1)CCN(C)CC3.O=C(O)c1ccccc1` [Tabernanthalog · Benzoate]: in series [1], the “Discrete melt (DSC)?” value is given as “✓”. In series [1], the “Flat baseline (DSC)?” value was “✓”. The “Flat baseline pre-melt (TGA)?” value in series [1] is given as “✓”. Also, the “Unique XRPD?” value in series [1] was “✓”. The “Trended HPLC data, Tabernanthalog (RRT 1.00)” value in series [2] (setting [5]) is 99.23 % area; in series [2] (t = 1 h in FaSSGF) it was 99.33 % area; in series [2] (t = 1 h in FaSSIF) it was 98.67 % area; in series [2] (t = 1 h in FeSSIF), 99.05 % area; in series [2] (t = 3 h in FaSSGF), 99.34 % area; in series [2] (t = 3 h in FaSSIF) it was 98.77 % area. Also, the “Trended HPLC data, Tabernanthalog (RRT 1.00)” value is reported as 99.03 % area in series [2] (t = 3 h in FeSSIF); 99.33 % area in series [2] (t = 6 h in FaSSGF); 98.58 % area in series [2] (t = 6 h in FaSSIF); 98.69 % area in series [2] (t = 6 h in FeSSIF); 99.29 % area in series [2] (t = 24 h in FaSSGF); 98.01 % area in series [2] (t = 24 h in FaSSIF). Further, the “Trended HPLC data, Tabernanthalog (RRT 1.00)” value in series [2] (t = 24 h in FeSSIF) amounted to 98.17 % area. In addition, in series [2] (setting [5]), the “Trended HPLC data, peak at RRT 0.86” value is reported as 0.02 % area. Moreover, the “Trended HPLC data, peak at RRT 0.89” value was determined as 0.04 % area in series [2] (setting [5]) and 0.15 % area in series [2] (t = 24 h in FeSSIF). Besides, the “Trended HPLC data, peak at RRT 0.93” value in series [2] (setting [5]) amounted to 0.61 % area; in series [2] (t = 1 h in FaSSGF) it was 0.55 % area; in series [2] (t = 1 h in FaSSIF) it was 0.92 % area; in series [2] (t = 1 h in FeSSIF), 0.84 % area; in series [2] (t = 3 h in FaSSGF) it was 0.58 % area; in series [2] (t = 3 h in FaSSIF), 1.04 % area. Besides, the “Trended HPLC data, peak at RRT 0.93” value in series [2] (t = 3 h in FeSSIF) was determined as 0.81 % area; in series [2] (t = 6 h in FaSSGF), 0.59 % area; in series [2] (t = 6 h in FaSSIF), 1.26 % area; in series [2] (t = 6 h in FeSSIF), 1.00 % area; in series [2] (t = 24 h in FaSSGF) it was 0.63 % area; in series [2] (t = 24 h in FaSSIF) it was 1.51 % area. The “Trended HPLC data, peak at RRT 0.93” value in series [2] (t = 24 h in FeSSIF) is 1.36 % area. In addition, the “Trended HPLC data, peak at RRT 1.09” value was 0.08 % area in series [2] (setting [5]); 0.07 % area in series [2] (t = 1 h in FaSSGF); 0.07 % area in series [2] (t = 3 h in FaSSGF); 0.08 % area in series [2] (t = 6 h in FaSSGF); 0.08 % area in series [2] (t = 24 h in FaSSGF). Further, the “Trended HPLC data, peak at RRT 1.11” value is on record as 0.02 % area in series [2] (setting [5]); 0.03 % area in series [2] (t = 1 h in FaSSGF); 0.28 % area in series [2] (t = 1 h in FaSSIF); 0.06 % area in series [2] (t = 3 h in FeSSIF); 0.09 % area in series [2] (t = 6 h in FeSSIF); 0.13 % area in series [2] (t = 24 h in FaSSIF). Further, the “Trended HPLC data, peak at RRT 1.10” value turned out to be 0.02 % area in series [2] (t = 1 h in FaSSGF), 0.07 % area in series [2] (t = 6 h in FeSSIF), 0.11 % area in series [2] (t = 24 h in FaSSIF) and 0.13 % area in series [2] (t = 24 h in FeSSIF). Besides, the “Trended HPLC data, peak at RRT 1.08” value in series [2] (t = 1 h in FaSSIF) came to 0.13 % area; in series [2] (t = 1 h in FeSSIF) it was 0.11 % area; in series [2] (t = 3 h in FaSSIF), 0.20 % area; in series [2] (t = 3 h in FeSSIF), 0.10 % area; in series [2] (t = 6 h in FaSSIF), 0.16 % area; in series [2] (t = 6 h in FeSSIF) it was 0.15 % area. The “Trended HPLC data, peak at RRT 1.08” value in series [2] (t = 24 h in FaSSIF) worked out at 0.24 % area; in series [2] (t = 24 h in FeSSIF), 0.19 % area.

Regarding `COc1ccc2c3c([nH]c2c1)CCN(C)CC3.O=P(O)(O)O` [Tabernanthalog · Phosphate], in series [1], the “Discrete melt (DSC)?” value is given as “✓”, the “Flat baseline (DSC)?” value is recorded as “✓” and the “Unique XRPD?” value is listed as “Disordered”.

Take `COc1ccc2c3c([nH]c2c1)CCN(C)CC3.O=C(O)[C@@H](O)[C@H](O)[C@H](O)[C@@H](O)C(=O)O` [Tabernanthalog · Galactarate]: in series [1], the “Flat baseline pre-melt (TGA)?” value is “✓” and the “Unique XRPD?” value is given as “v. Disordered”.

Turning to `COc1ccc2c3c([nH]c2c1)CCN(C)CC3.O=C[C@H](O)[C@@H](O)[C@H](O)[C@H](O)C(=O)O` [Tabernanthalog · Glucuronate], in series [1], the “Discrete melt (DSC)?” value is on record as “✓”, the “Flat baseline (DSC)?” value is given as “✓”, the “Flat baseline pre-melt (TGA)?” value is on record as “✓” and the “Unique XRPD?” value is on record as “✓”.

Regarding `C/C=C/C=C/C(=O)O.COc1ccc2c3c([nH]c2c1)CCN(C)CC3` [Sample 6-D1], the “Tabernanthalog RRT = 1.00 (trended HPLC data, chemical purity)” value in series [3] (Sorbate salt, t = 5 d at 75% RH at 40° C.) was found to be 99.52.

In the case of `C/C=C/C=C/C(=O)O.COc1ccc2c3c([nH]c2c1)CCN(C)CC3.O` [Form C (Pattern #2)], the “form change during DVS” value in series [4] is listed as “reverted to Form A on the desorption cycle”.

Take `COc1ccc2c3c([nH]c2c1)CCN(C)CC3.O=C(O)C(O)C(O)C(=O)O` [Sample 6-B1]: the “Tabernanthalog RRT = 1.00 (trended HPLC data, chemical purity)” value in series [3] (Tartrate salt, t = 5 d at 75% RH at 40° C.) turned out to be 98.86.

For the compound `COc1ccc2c3c([nH]c2c1)CCN(C)CC3.Cc1ccc(S(=O)(=O)O)cc1` [Tabernanthalog · Tosylate], in series [1], the “Discrete melt (DSC)?” value was “✓”, the “Flat baseline (DSC)?” value is reported as “✓”, the “Flat baseline pre-melt (TGA)?” value was “✓” and the “Unique XRPD?” value is reported as “✓”.

Regarding `COc1ccc2c3c([nH]c2c1)CCN(C)CC3` [Tabernanthalog · Sorbate], in series [1], the “Discrete melt (DSC)?” value is on record as “✓”, the “Flat baseline (DSC)?” value is recorded as “✓”, the “Flat baseline pre-melt (TGA)?” value is “✓” and the “Unique XRPD?” value is given as “✓”.

In the case of `COc1ccc2c3c([nH]c2c1)CCN(C)CC3.O=C(O)c1ccccc1` [Sample 16-C2], the “Tabernanthalog RRT = 1.00 (trended HPLC data, chemical purity)” value in series [3] (Benzoate salt, t = 10 d at 75% RH at 40° C.) is reported as 98.17.

For the compound `COc1ccc2c3c([nH]c2c1)CCN(C)CC3.O=C(O)/C=C/C(=O)O` [8-A4 of Example 5], the “Tabernanthalog RRT = 1.00 (trended HPLC data, chemical purity)” value in series [3] (Fumarate salt, input before humidity exposure) worked out at 99.04.

For the compound `COc1ccc2c3c([nH]c2c1)CCN(C)CC3.O=C(O)CCCCC(=O)O` [Tabernanthalog · Adipate], in series [1], the “Discrete melt (DSC)?” value was “✓”, the “Flat baseline (DSC)?” value is on record as “✓” and the “Unique XRPD?” value is given as “✓”.

`C/C=C/C=C/C(=O)O.COc1ccc2c3c([nH]c2c1)CCN(C)CC3` [Sample 6-D2]: the “Tabernanthalog RRT = 1.00 (trended HPLC data, chemical purity)” value in series [3] (Sorbate salt, t = 10 d at 75% RH at 40° C.) is listed as 99.70.

On to `COc1ccc2c3c([nH]c2c1)CCN(C)CC3.O=C(O)C=CC(=O)O` [Tabernanthalog · Maleate], for which the “Unique XRPD?” value in series [1] is “Disordered”.

Turning to `COc1ccc2c3c([nH]c2c1)CCN(C)CC3.O=C(O)/C=C/C(=O)O` [Sample 6-A1], the “Tabernanthalog RRT = 1.00 (trended HPLC data, chemical purity)” value in series [3] (Fumarate salt, t = 5 d at 75% RH at 40° C.) is reported as 99.12.

With `COc1ccc2c3c([nH]c2c1)CCN(C)CC3.O=S(=O)(O)CCS(=O)(=O)O` [Tabernanthalog · Edisylate], the “Unique XRPD?” value in series [1] was “Disordered”.

Regarding `COc1ccc2c3c([nH]c2c1)CCN(C)CC3.O=S(=O)(O)O` [Tabernanthalog · Sulfate], the “Unique XRPD?” value in series [1] is “Amorphous”.
